The values that follow come from patent US20090156518A1, “STABLE PHARMACEUTICAL COMPOSITION COMPRISING BETA-LACTAM ANTIBIOTIC AND BUFFER” (priority 2006, published 2009).

A short description of the series: amounts of β-lactam antibiotic, β-lactamase inhibitor (C18 reverse-phase LC, UV-VIS) and aminoglycoside (HPLC-ELSD) in solution over time. The format is physicochemical.

On to `NCC[C@H](O)C(=O)N[C@@H]1C[C@H](N)[C@@H](O[C@H]2O[C@H](CN)[C@@H](O)[C@H](O)[C@H]2O)[C@H](O)[C@H]1O[C@H]1O[C@H](CO)[C@@H](O)[C@H](N)[C@H]1O.O=S(=O)(O)O.O=S(=O)(O)O` [Amikacin sulfate, amikacin sulfate], for which the “amount of component as percentage with respect to the amount at the initial time” value (“amount of component as percentage” below) runs as follows: (Example 5: freeze-dried cefoperazone sodium 4 g, sulbactam sodium 0.5 g, citrate pH 6.75, + amikacin sulfate 500 mg, 7 days 0° C., dissolved in 100 mL water, Time 0 h) 98.98%; (Example 5: freeze-dried cefoperazone sodium 4 g, sulbactam sodium 0.5 g, citrate pH 6.75, + amikacin sulfate 500 mg, 7 days 0° C., dissolved in 100 mL water, Time 1 h) 98.73%; (Example 5: freeze-dried cefoperazone sodium 4 g, sulbactam sodium 0.5 g, citrate pH 6.75, + amikacin sulfate 500 mg, 7 days 0° C., dissolved in 100 mL water, Time 2 h) 98.52%; (Example 5: freeze-dried cefoperazone sodium 4 g, sulbactam sodium 0.5 g, citrate pH 6.75, + amikacin sulfate 500 mg, 7 days 0° C., dissolved in 100 mL water, Time 4 h) 98.41%; (Example 5: freeze-dried cefoperazone sodium 4 g, sulbactam sodium 0.5 g, citrate pH 6.75, + amikacin sulfate 500 mg, 7 days 0° C., dissolved in 100 mL water, Time 6 h) 98.76%; (Example 17: freeze-dried cefoperazone sodium 4 g, sulbactam sodium 1 g, citrate pH 6.75, 7 days 0° C., in 100 mL water, 10 mL + amikacin sulfate 40 mg, room temperature, Time 0 h) 99.91%. Besides, the “amount of component as percentage” value came to 99.50% (Example 17: freeze-dried cefoperazone sodium 4 g, sulbactam sodium 1 g, citrate pH 6.75, 7 days 0° C., in 100 mL water, 10 mL + amikacin sulfate 40 mg, room temperature, Time 1 h); 98.88% (Example 17: freeze-dried cefoperazone sodium 4 g, sulbactam sodium 1 g, citrate pH 6.75, 7 days 0° C., in 100 mL water, 10 mL + amikacin sulfate 40 mg, room temperature, Time 2 h); 99.45% (Example 17: freeze-dried cefoperazone sodium 4 g, sulbactam sodium 1 g, citrate pH 6.75, 7 days 0° C., in 100 mL water, 10 mL + amikacin sulfate 40 mg, room temperature, Time 4 h); 98.56% (Example 17: freeze-dried cefoperazone sodium 4 g, sulbactam sodium 1 g, citrate pH 6.75, 7 days 0° C., in 100 mL water, 10 mL + amikacin sulfate 40 mg, room temperature, Time 6 h); 99.36% (Example 17: freeze-dried cefoperazone sodium 4 g, sulbactam sodium 1 g, citrate pH 6.75, 7 days 0° C., in 100 mL water, 10 mL + amikacin sulfate 40 mg, room temperature, Time 8 h).

As for `CO/N=C(\C(=O)N[C@@H]1C(=O)N2C(C(=O)O)=C(CSc3nc(C)c(CC(=O)O)s3)CS[C@H]12)c1csc(N)n1` [Cefodizime sodium], the “amount of component as percentage” value reads like this: (Example 12: freeze-dried cefodizime sodium, citrate pH 6.75, 7 days 0° C., in 100 mL 5% fructose + etimicin sulfate 200 mg, Time 0 h) 99.01%; (Example 12: freeze-dried cefodizime sodium, citrate pH 6.75, 7 days 0° C., in 100 mL 5% fructose + etimicin sulfate 200 mg, Time 1 h) 103.8%; (Example 12: freeze-dried cefodizime sodium, citrate pH 6.75, 7 days 0° C., in 100 mL 5% fructose + etimicin sulfate 200 mg, Time 2 h) 98.33%; (Example 12: freeze-dried cefodizime sodium, citrate pH 6.75, 7 days 0° C., in 100 mL 5% fructose + etimicin sulfate 200 mg, Time 4 h) 98.99%; (Example 12: freeze-dried cefodizime sodium, citrate pH 6.75, 7 days 0° C., in 100 mL 5% fructose + etimicin sulfate 200 mg, Time 6 h) 97.89%; (Example 12: freeze-dried cefodizime sodium, citrate pH 6.75, 7 days 0° C., in 100 mL 5% fructose + etimicin sulfate 200 mg, Time 8 h) 92.52%. For the same molecule, the “amount of component as percentage” value runs as follows: (Example 18: cefodizime sodium 1 g, etimicin sulfate 200 mg, citrate pH 6.75, 200 mL water, room temperature, Time 0 h) 99.01%; (Example 18: cefodizime sodium 1 g, etimicin sulfate 200 mg, citrate pH 6.75, 200 mL water, room temperature, Time 1 h) 103.8%; (Example 18: cefodizime sodium 1 g, etimicin sulfate 200 mg, citrate pH 6.75, 200 mL water, room temperature, Time 2 h) 98.33%; (Example 18: cefodizime sodium 1 g, etimicin sulfate 200 mg, citrate pH 6.75, 200 mL water, room temperature, Time 4 h) 98.99%; (Example 18: cefodizime sodium 1 g, etimicin sulfate 200 mg, citrate pH 6.75, 200 mL water, room temperature, Time 6 h) 97.89%; (Example 18: cefodizime sodium 1 g, etimicin sulfate 200 mg, citrate pH 6.75, 200 mL water, room temperature, Time 8 h) 92.52%.
